The text below walks through data of paper PMC8816521, “Flux-Based Formulation Development—A Proof of Concept Study” (The AAPS Journal, 2022).

The nature of data set [1]: Large volume dissolution-permeation (MacroFLUX). The class given is in vitro ADME. The following applies: large scale; donor SGF pH 1.6 converted to FaSSIF pH 6.5 after 30 min, acceptor pH 7.4, 37°C, calculated between 70 and 100 min.
Description: Final dosage forms of TEL were tested using MacroFLUX^TM (Pion Inc., Billerica MA, USA). […] The flux and permeability values were calculated using Eqs. (1) and (2) between 70 and 100 min.
The MacroFLUX system equipped with in situ fiber optic concentration monitoring was used in this final investigation. The same media conversion protocol as in the case of small volume dissolution-permeation measurements was applied in the dissolution vessel [28]. Micardis, the brand formulation, and the pure amorphous drug were used as references.
Receiver chamber integrated with permeation membrane, overhead stirrer and fiber optic UV probe was inserted in the standard 900 mL vessel of USP 2 apparatus (Erweka DT 126 Dissolution Tester, Heusenstamm Germany). A filter-supported artificial membrane (hydrophobic PVDF, polyvinylidenfluoride, 0.45 μm pore size, 3.8 cm^2) impregnated with 50 μL of n-dodecane was separating the dissolution (donor) compartment from the receiver compartment containing 13 mL of pH 7.4 (Prisma^HT, Pion Inc.). The experiment began in 850 mL of pH 1.6 buffer simulating gastric conditions (SGF) on the donor side and then after 30 minutes media in the dissolution vessel was converted to fasted state simulated intestinal fluid (FaSSIF V1) (pH 6.5) by adding 212.5 mL of specially formulated concentrate containing SIF powder. […]
Data set [2] in a line: Small volume dissolution-permeation (MicroFLUX). The conditions noted are these: small scale; donor pH 1.6 converted to FaSSIF pH 6.5 after 30 min, acceptor pH 7.4, 37°C, calculated between 70 and 100 min. The class given is in vitro ADME. As for the experimental part:
(§1) The flux across the membrane was calculated using the following equation: 1 Jt=Δn/A*Δt
(§2) where the flux (J) of a drug through the membrane is defined as the amount (n) of drug crossing a unit area (A) perpendicular to its flow per unit time (t). 2 Pe=J/CD where the Pe is the effective permeability of the drug and CD is donor concentration.
Electrospun formulations of TEL were tested using μFLUX (Pion Inc., Billerica MA, USA) apparatus which consists of a donor and an acceptor chamber separated by an artificial membrane (PVDF, polyvinylidenfluoride, 0.45 μm, 1.54 cm^2) impregnated with 25 μL n-dodecane to form a lipophilic barrier between the donor and acceptor chambers. In case of oral drug delivery, the donor chamber represents the stomach’s condition, while the 18 mL pH 7.4 buffer of acceptor chamber represents the blood circulation. The attempt was started in 16 mL pH 1.6 buffer solution; then after 30 min, media in the dissolution vessel was converted to FaSSIF (pH 6.5) by adding 4 mL of SIF concentrate. Both chambers were stirred at 250 rpm at 37°C to keep the thickness of the unstirred aqueous layer on minimum. In both chambers, the API concentration was followed by immersed UV probes connected to the Rainbow instrument (Pion Inc., Billerica MA, USA). The flux and permeability values were calculated using Eqs. (1) and (2) between 70 and 100 min. […]

The nature of data set [3]: PAMPA for evaluating the effect of formulation additives on TEL permeability. It counts as in vitro ADME. The following applies: for Pe: acceptor pH 7.4, 37°C. As for the experimental part:
Each well of the top (donor) compartment of 96-well […]™ PAMPA sandwich (Pion Inc., Billerica MA, USA) was coated with 4 μL of n-dodecane. Before forming the sandwich, the bottom (acceptor) plate was prefilled with 180 μL of pH = 7.4 Prisma^HT buffer. The donor plate was filled with 200 μL of FaSSIF buffer with pre-dissolved TEL and formulation additives. The resultant sandwich was incubated at 37°C, and both compartments were stirred at 60 μm (ABL) with Gut-Box™ (Pion Inc., Billerica MA, USA). After 30 min, the PAMPA sandwich was separated, and 100 μL of both the donor and acceptor compartments were transferred to UV plates (UV-star micro plate, clear, flat bottom, half area, Greiner Group AG, Kremsmünster, Austria). UV absorption (230–400 nm) was measured with Tecan Infinite M200 (Tecan Group Ltd., Mannedorf, Switzerland) driven by PAMPA Explorer software™ (Pion Inc., Billerica MA, USA). Three parallel measurements were performed, and the data were measured with six replicates on every single plate.
as §1, §2
At first, an excipient screening on the PAMPA platform was carried out. The excipients of the available TEL formulations and commonly used standard excipients were involved in the investigation of API-excipient interaction. The concentration of the excipients was determined by referring the usual amount of additives in one tablet to 900 mL dissolution media. Due to the experimental differences in the applied doses, the flux data were considered misleading, and the permeability value was used since it is normalized by the donor concentration.
(In PAMPA a lipid-coated filter parts donor from acceptor wells.)

Details of data set [4]: method as in PMID 18501462, PMID 31458196. The following applies: between pH 3 and 8; cited from earlier work.
Data set [5] in a line: Kinetic solubility in FaSSIF with pre-dissolved additives (in situ UV probes, ZIM). The conditions noted are these: 37 °C. The class given is physicochemical. The method, then:
Note that in the context of this manuscript, solubility measured by this method will be called kinetic solubility because the form of the solid phase precipitating during these assays was not characterized. […] Ten milliliters of dissolution medium consisting of equilibrated fasted state simulated intestinal fluid (FaSSIF) buffer containing pre-dissolved additives was stirred at 200 rpm and held at 37°C by circulating water through a heating block mounted to a Pion μDISS™ profiler (Pion Inc., Billerica MA, USA). The stock solution was added in 20 μL aliquots to the dissolution medium. 1 M HCl was used to readjust the pH of the media after every addition of the stock solution. During and after addition of the stock solution, UV probes connected to a Pion Rainbow™ Dynamic Dissolution Monitor® system were used to detect changes in UV spectra, thus enabling the detection of precipitation, which provides information about the kinetic solubility limit.
The zero intercept method (ZIM) was implemented in the AuPRO™ software (Pion Inc., Billerica MA, USA), which was considered a suitable method for detecting the solid nanoparticles in solution. It can be noticed that the second derivative spectrum of a particular compound usually crosses the wavelength axis at specific wavelengths that we will call zero intercept method points or ZIM points (λZIM). The ZIM points are characteristic of the compound and are independent of the concentration. The second derivative values at λZIM are expected to be zero […] the compound is fully dissolved. After a critical concentration, solid particles appear in the solution, and a ZIM point shift can be observed. In case of TEL, the ZIM evaluation was carried out at a wavelength of 318 nm.

Another data set is described as follows: Solubility of TEL. It counts as physicochemical.

≈ marks a conversion by molar mass, not a printed value. Like-named read-outs stand apart in the source and are kept apart here.

For `CCCc1nc2c(C)cc(-c3nc4ccccc4n3C)cc2n1Cc1ccc(-c2ccccc2C(=O)O)cc1` [Tel_amorphous, telmisartan], the values for the Pe in data set [1] and in data set [2] were 1.03 10^−4 cm/sec and 1.19 10^−4 cm/sec, respectively.
As for `CCCc1nc2c(C)cc(-c3nc4ccccc4n3C)cc2n1Cc1ccc(-c2ccccc2C(=O)O)cc1` [TEL, telmisartan], in data set [3] (PAMPA, excipient-free TEL on the plate of the additive in that table row, FaSSIF donor, 37°C, read-out: Reference Pe), the Papp at 30 min came to 111 ×10⁻⁶ cm/s. In addition, the Pe in data set [3] (TEL with HMPC 2910 212 μg/mL in FaSSIF donor, 30 min) is 1.22 10^−4 cm/sec; in data set [3] (TEL with HPMC-AS 212 μg/mL in FaSSIF donor, 30 min) it was 1.28 10^−4 cm/sec; in data set [3] (TEL with HPβCD 1386 μg/mL in FaSSIF donor, 30 min), 1.21 10^−4 cm/sec; in data set [3] (TEL with Lactose monohydrate 667 μg/mL in FaSSIF donor, 30 min), 1.39 10^−4 cm/sec; in data set [3] (TEL with Mannitol 667 μg/mL in FaSSIF donor, 30 min), 1.23 10^−4 cm/sec; in data set [3] (TEL with PVP K30 212 μg/mL in FaSSIF donor, 30 min) it was 1.31 10^−4 cm/sec. Besides, the Pe in data set [3] (TEL with PVP K90 212 μg/mL in FaSSIF donor, 30 min) is given as 1.25 10^−4 cm/sec; in data set [3] (TEL with SDS 850 μg/mL in FaSSIF donor, 30 min) it was 0.83 10^−4 cm/sec; in data set [3] (TEL with Sorbitol 667 μg/mL in FaSSIF donor, 30 min) it was 1.42 10^−4 cm/sec; in data set [3] (TEL with Tween 80 0.45 μg/mL in FaSSIF donor, 30 min), 0.86 10^−4 cm/sec. Further, in data set [3] (excipient-free TEL on the plate of the additive in that table row, FaSSIF donor, 37°C, 30 min), the “Reference Pe” value was 1.16 10^−4 cm/sec. In addition, the solubility entry in data set [4] was “practically insoluble”; in the data set “Solubility of TEL” (pH 6.5, crystalline TEL in FaSSIF media), less than 1 µg/mL. Moreover, the kinetic solubility in data set [5] (FaSSIF buffer with pre-dissolved additive, pH 6.5, aqueous with cosolvent or surfactant or cyclodextrin, TEL in FaSSIF with HPβCD 1386 μg/mL) turned out to be 37.5 µg/mL (≈ 72.9 µM); in data set [5] (FaSSIF buffer with pre-dissolved additive, pH 6.5, aqueous with cosolvent or surfactant or cyclodextrin, TEL in FaSSIF with SDS 850 μg/mL) it was 45.9 µg/mL (≈ 89.1 µM); in data set [5] (FaSSIF buffer with pre-dissolved additive, pH 6.5, aqueous with cosolvent or surfactant or cyclodextrin, TEL in FaSSIF with Tween 80 0.45 μg/mL), 64.3 µg/mL (≈ 125 µM); in data set [5] (FaSSIF buffer with pre-dissolved additive, pH 6.5, fassif, TEL in FaSSIF with HMPC 2910 212 μg/mL), 30.9 µg/mL (≈ 60 µM); in data set [5] (FaSSIF buffer with pre-dissolved additive, pH 6.5, fassif, TEL in FaSSIF with HPMC-AS 212 μg/mL) it was 34.1 µg/mL (≈ 66.3 µM); in data set [5] (FaSSIF buffer with pre-dissolved additive, pH 6.5, fassif, TEL in FaSSIF with Lactose monohydrate 667 μg/mL), 32.8 µg/mL (≈ 63.7 µM). Also, the kinetic solubility in data set [5] (FaSSIF buffer with pre-dissolved additive, pH 6.5, fassif, TEL in FaSSIF with Mannitol 667 μg/mL) stood at 39.7 µg/mL (≈ 77.1 µM); in data set [5] (FaSSIF buffer with pre-dissolved additive, pH 6.5, fassif, TEL in FaSSIF with PVP K30 212 μg/mL) it was 34.7 µg/mL (≈ 67.4 µM); in data set [5] (FaSSIF buffer with pre-dissolved additive, pH 6.5, fassif, TEL in FaSSIF with PVP K90 212 μg/mL), 34.4 µg/mL (≈ 66.8 µM); in data set [5] (FaSSIF buffer with pre-dissolved additive, pH 6.5, fassif, TEL in FaSSIF with Sorbitol 667 μg/mL) it was 30.7 µg/mL (≈ 59.7 µM); in data set [5] (FaSSIF buffer, pH 6.5, fassif, TEL in FaSSIF, no additive (0 μg/mL)) it was 37.3 µg/mL (≈ 72.4 µM). Moreover, the “Solubility in 1 M NaOH solution” value in the data set “Solubility of TEL” (1 M NaOH solution, aqueous) was “dissolves extremely well”.

For orientation: solubility means the concentration that dissolves in the medium under given conditions. As a reminder, the kinetic solubility is the concentration staying in solution when a stock, usually in DMSO, is diluted into the medium.
